Experimental data published in patent US8293705B2, “HCV protease inhibitors and uses thereof” (Avila Therapeutics, Inc., priority 2007, dated 2012).
Like-named read-outs stand apart in the source and are kept apart here.

Tests used:
[1] = target: T1, HCV NS3/4A 1b protease wild type (Hepatitis C virus genotype 1b, UniProt Q9WMX2); assay: HCV protease FRET assay (IC50_APP), Example 16; format: biochemical
T1 construct: 10× stocks of NS3/4A protease enzyme from Bioenza (Mountain View, Calif.); purchased Bioenza (Mountain View, Calif.)
Description: (§1) The following protocol was used to generate “apparent” IC50 (IC50 APP) values as depicted in Table 6, below. […] 5 μL of each enzyme were added to Corning (#3575) 384-well, black, microtiter plates (Corning, N.Y.) after spotting a 0.5 μL volume of 50% DMSO and serially diluted compounds prepared in 50% DMSO. Protease reactions were immediately started after enzyme addition with the addition of 45 μL of the FRET substrate and monitored for 60-90 minutes at λex485/λem520 in a Synergy^4 plate reader from BioTek (Winooski, Vt.). At the conclusion of each assay, progress curves from each well were examined for linear reaction kinetics and fit statistics (R^2, 95% confidence intervals, absolute sum of squares).
(§2) The compound numbers correspond to the compound numbers in Table 3. […] ;

[2] = target: T2, HCV NS3/4A 1b protease A156T (Hepatitis C virus genotype 1b, UniProt Q9WMX2, A1182T); assay: HCV protease FRET assay (IC50_APP), Example 16; format: biochemical
T2 construct: 10× stocks of NS3/4A protease enzyme from Bioenza (Mountain View, Calif.); purchased Bioenza (Mountain View, Calif.)
Description: as §1, §2

[3] = target: T3, HCV NS3/4A 1b protease D168A (Hepatitis C virus genotype 1b, UniProt Q9WMX2, D1194A); assay: HCV protease FRET assay (IC50_APP), Example 16; format: biochemical
T3 construct: 10× stocks of NS3/4A protease enzyme from Bioenza (Mountain View, Calif.); purchased Bioenza (Mountain View, Calif.)
Description: as §1, §2

[4] = target: T4, HCV NS3/4A wild type (Hepatitis C virus genotype 1b, UniProt Q9WMX2); assay: Mass spectrometric analysis of covalent modification (MALDI-TOF); format: binding; conditions: 10× excess of test compound to protein; MALDI-TOF
T4 construct: HCV NS3/4A wild type (wt) was incubated for 1 hr at a 10× fold access of test compound to protein; purchased Bioenza, Calif
Description: Mass spectrometric analysis of HCV wild type or HCV variant C159S in the presence of test compound is performed. 100 pmols of HCV wild type (Bioenza, Calif.) is incubated with test compound for 1 hr and 3 hrs at 10-fold access of test compound to protein. 1 ul aliquots of the samples (total volume of 4.24 ul) are diluted with 10 ul of 0.1% TFA prior to micro C4 ZipTipping directly onto the MALDI target using Sinapinic acid as the desorption matrix (10 mg/mL in 0.1% TFA:Acetonitrile 50:50). Analyses are performed on a Shimadzu Biotech Axima TOF2 (Shimadzu Instruments) matrix-assisted-laser desorption/ionization Time-of-Flight (MALDI-TOF) mass spectrometer. The same procedure is carried out on 100 pmols of HCV C159S mutant of HCV protease for 3 hrs at 10-fold excess of test compound to protein.
As depicted in FIGS. 1 and 2, mass spectrometric analysis of HCV wild type in the presence of test compounds I-1 and I-25 was performed using the following protocol: HCV NS3/4A wild type (wt) was incubated for 1 hr at a 10× fold access of test compound to protein. 2 ul aliquots of the samples were diluted with 10 ul of 0.1% TFA prior to micro C4 ZipTipping directly onto the MALDI target using Sinapinic acid as the desorption matrix (10 mg/ml in 0.1% TFA:Acetonitrile 50:50). For intact protein mass measurement the instrument was set in linear mode using a pulsed extraction setting of 24,500 and apomyoglobin as the standard to calibrate the instrument.

[5] = test system: HCV RNA replicon in cell line ET (luc-ubi-neo/ET), human Huh7 hepatoma; assay: Replicon luciferase assay, Example 26; format: cell-based; conditions: Hepatitis C virus, Huh-7, assay of Example 26, 72 hr; for EC50: read-out: Inhibition, Replicon, EC50 value; for EC90: read-out: Inhibition, Replicon, EC90 value
Description: The compounds were assayed to evaluate the antiviral activity and cytotoxicity of compounds using replicon-derived luciferase activity. This assay used the cell line ET (luc-ubi-neo/ET), which is a human Huh7 hepatoma cell line that contains an HCV RNA replicon with a stable luciferase (Luc) reporter and cell culture-adaptive mutations. The ET cell line was grown in a 5% CO2 incubator at 37° C. in Dulbecco's modified essential media (DMEM) supplemented with 2 mM L-glutamine, nonessential amino acids, 100 U of penicillin/ml, 100 μg of streptomycin/mL, and 10% fetal bovine serum. G418 (Geneticin; Invitrogen) was added at a final concentration of 400 ug//mL.
All cell culture reagents were obtained from Invitrogen (Carlsbad). Cells were trypsinized (1% trypsin:EDTA) and plated out at 5×10^3 cells/well in white 96-well assay plates (Costar) dedicated to cell number (cytotoxicity) or antiviral activity assessments. Test compounds were added at six 3-fold concentrations each and the assay was run in DMEM, 5% FBS, 1% pen-strep, 1% glutamine, 1% non essential amino acid. Human interferon alpha-2b (PBL Biolabs, New Brunswick, N.J.) was included in each run as a positive control compound. Cells were processed 72 hr post test compound addition when the cells were still subconfluent. Antiviral activity was measured by analyzing replicon-derived luciferase activity using the Steady-Glo Luciferase Assay System (Promega, Madison, Wis.) according to manufacturer's instruction. The number of cells in each well was determined by Cell Titer Blue Assay (Promega). Compound profile was derived by calculating applicable EC50 (effective concentration inhibiting virus replication by 50%), EC90 (effective concentration inhibiting virus replication by 90%), IC50 (concentration decreasing cell viability by 50%) and SI50 (selective index: […]) values.

[6] = target: T5, HCV NS3/4A 1b protease R155K (Hepatitis C virus genotype 1b, UniProt Q9WMX2, R1181K); assay: HCV protease FRET assay (IC50_APP), Example 16; format: biochemical; conditions: reaction started immediately after enzyme addition, read-out: Inhibition (apparent IC50, IC50_APP), HCV R155K
T5 construct: 10× stocks of NS3/4A protease enzyme from Bioenza (Mountain View, Calif.); purchased Bioenza (Mountain View, Calif.)
Description: as §1, §2

[7] = read-out: Inhibition (apparent IC50, IC50_APP), WT, FRET, reaction started immediately after enzyme addition
[8] = read-out: Inhibition (apparent IC50, IC50_APP), HCV D168A, FRET, reaction started immediately after enzyme addition

SMILES | IC50 [1] | IC50 [2] | IC50 [3] | Covalent modification of HCV NS3/4A wild type [4] | EC50 [5] | EC90 [5] | IC50 [6] | IC50 [1, 7] | IC50 [3, 8]
C=CC(=O)N[C@H](C)C(=O)N1C[C@H](OC(=O)N2Cc3cccc(F)c3C2)C[C@H]1C(=O)N[C@]1(C(=O)NS(=O)(=O)C2CC2)C[C@H]1C=C [Compound I-8, (3R,5S)-1-((R)-2-acrylamidopropanoyl)-5-((1R,2S)-1-(cyclopropylsulfonylcarbamoyl)-2-vinylcyclopropylcarbamoyl)pyrrolidin-3-yl-4-fluoroisoindoline-2-carboxylate] | < 10 nM | < 10 nM | < 10 nM | measurable covalent modification |  |  |  |  | 
C=CC(=O)N[C@@H](C(=O)N1C[C@H](OC(=O)N2Cc3cccc(F)c3C2)C[C@H]1C(=O)N[C@]1(C(=O)NS(=O)(=O)C2CC2)C[C@H]1C=C)C(C)C [Compound I-9, (3R,5S)-1-((R)-2-acrylamido-3-methylbutanoyl)-5-((1R,2S)-1-(cyclopropylsulfonylcarbamoyl)-2-vinylcyclopropylcarbamoyl)pyrrolidin-3-yl-4-fluoroisoindoline-2-carboxylate] | < 10 nM | < 10 nM | 10 to 100 nM | measurable covalent modification |  |  |  |  | 
C=C[C@@H]1C[C@]1(NC(=O)[C@@H]1C[C@@H](OC(=O)N2Cc3cccc(F)c3C2)CN1C(=O)CNC(=O)c1ccccc1OC(C)=O)C(=O)NS(=O)(=O)C1CC1 [Compound I-10, (3R,5S)-1-(2-(2-acetoxybenzamido)acetyl)-5-((1R,2S)-1-(cyclopropylsulfonylcarbamoyl)-2-vinylcyclopropylcarbamoyl)pyrrolidin-3-yl-4-fluoroisoindoline-2-carboxylate] | 100 to 1000 nM | 1000 to 10000 nM | 1000 to 10000 nM | measurable covalent modification |  |  |  |  | 
C=C[C@@H]1C[C@]1(NC(=O)[C@@H]1CC(OC(=O)N2Cc3cccc(F)c3C2)CN1C(=O)[C@@H](C)Nc1ccnc(Cl)n1)C(=O)NS(=O)(=O)C1CC1 (some centres unmarked) [Compound I-49] | 100 to 1000 nM |  | 1000 to 10000 nM |  | 1000 to 10000 nM | 1000 to 10000 nM | 1000 to 10000 nM |  | 
C=C[C@@H]1C[C@]1(NC(=O)[C@@H]1CC(OC(=O)N2Cc3cccc(F)c3C2)CN1C(=O)C(CN(C)C(=O)/C=C/CN(C)C)NC(=O)OC(C)(C)C)C(=O)NS(=O)(=O)C1CC1 (some centres unmarked) [Compound I-50] | 10 to 100 nM |  | 1000 to 10000 nM |  | 1000 to 10000 nM | 1000 to 10000 nM | 1000 to 10000 nM |  | 
C=CC(=O)N1CC(C(NC(=O)OC2CCCC2)C(=O)N2CC(OC(=O)N3Cc4cccc(F)c4C3)C[C@H]2C(=O)N[C@]2(C(=O)NS(=O)(=O)C3CC3)C[C@H]2C=C)C1 (some centres unmarked) [Compound I-51] | < 10 nM |  | 10 to 100 nM |  | 100 to 1000 nM | 1000 to 10000 nM | 10 to 100 nM |  | 
CC(C)(C)OC(=O)N[C@H]1CCN(S(=O)(=O)c2ccccc2[N+](=O)[O-])CC/C=C\[C@@H]2C[C@@]2(C(=O)NS(=O)(=O)C2CC2)NC(=O)[C@@H]2CC(OC(=O)N3Cc4cccc(F)c4C3)CN2C1=O (some centres unmarked) [Compound I-53] |  |  |  |  | 10 to 100 nM | 100 to 1000 nM | < 10 nM | < 10 nM | < 10 nM
CC(C)(C)OC(=O)N[C@H]1CCCN(S(=O)(=O)c2ccccc2[N+](=O)[O-])C/C=C\[C@@H]2C[C@@]2(C(=O)NS(=O)(=O)C2CC2)NC(=O)[C@@H]2CC(OC(=O)N3Cc4cccc(F)c4C3)CN2C1=O (some centres unmarked) [Compound I-54] |  |  |  |  | 100 to 1000 nM | > 10000 nM | 10 to 100 nM | < 10 nM | 10 to 100 nM
C=C[C@@H]1C[C@]1(NC(=O)[C@@H]1C[C@@H]2CN1C(=O)[C@H](CCC(=O)C=C(C)C)NC(=O)OCC(C)(C)CC/C=C/c1cccc3c1CN(C3)C(=O)O2)C(=O)NS(=O)(=O)C1CC1 [Compound I-55] | < 10 nM | < 10 nM | 10 to 100 nM |  | < 10 nM |  | 10 to 100 nM |  | 
CC[C@@H]1C[C@]1(NC(=O)[C@@H]1C[C@@H]2CN1C(=O)[C@H](CCC(=O)C=C(C)C)NC(=O)OCC(C)(C)CC/C=C/c1cccc3c1CN(C3)C(=O)O2)C(=O)NS(=O)(=O)C1CC1 [Compound I-56] | < 10 nM |  | 100 to 1000 nM |  | < 10 nM |  | 100 to 1000 nM |  | 
C=C[C@@H]1C[C@]1(NC(=O)[C@@H]1CC(OC(=O)N2Cc3cccc(F)c3C2)CN1C(=O)[C@H](CC(=O)C(=C)C)NC(=O)OC(C)(C)C)C(=O)NS(=O)(=O)C1CC1 (some centres unmarked) [Compound I-68] | < 10 nM |  | < 10 nM |  | 100 to 1000 nM |  | < 10 nM |  | 
C=C(C)C(=O)C[C@H](NC(=O)OC(C)(C)C)C(=O)N1CC(OC(=O)N2Cc3cccc(F)c3C2)C[C@H]1C(=O)N[C@]1(C(=O)NS(=O)(=O)C2CC2)C[C@H]1CC (some centres unmarked) [Compound I-69] | < 10 nM |  | 10 to 100 nM |  | 100 to 1000 nM |  | < 10 nM |  | 
C=C[C@@H]1C[C@]1(NC(=O)[C@@H]1CC(OC(=O)N2Cc3cccc(F)c3C2)CN1C(=O)[C@H](CCC(=O)/C=C\C(C)(C)C)NC(=O)OC(C)(C)C)C(=O)NS(=O)(=O)C1CC1 (some centres unmarked) [Compound I-71] | < 10 nM |  | 100 to 1000 nM |  | < 10 nM |  | 100 to 1000 nM |  | 
C=C[C@@H]1C[C@]1(NC(=O)[C@@H]1C[C@@H]2CN1C(=O)[C@H](CC(=O)C=C(C)C)NC(=O)OCC(C)(C)CC/C=C/c1cccc3c1CN(C3)C(=O)O2)C(=O)NS(=O)(=O)C1CC1 [Compound I-79] | < 10 nM |  | 10 to 100 nM |  | < 10 nM |  | < 10 nM |  | 
